Reference: the NIST ThermoML archive (doi:10.1016/j.fluid.2006.05.015)

Assay: mn = molality of the nth substance listed, in mol/kg
Details: Liquid, Constant-volume piezometry

[Br-].[K+] [potassium bromide] + O
Details | mass density [kg/m3]
298.15 K, 101 kPa, m1 = 0.2378 | 1017
298.15 K, 101 kPa, m1 = 0.4645 | 1035.5
298.15 K, 101 kPa, m1 = 0.944 | 1073.1
298.15 K, 101 kPa, m1 = 2.231 | 1167.1
298.94 K, 4079 kPa, m1 = 0.944 | 1074.6
298.94 K, 13886 kPa, m1 = 0.944 | 1079.1
298.94 K, 28950 kPa, m1 = 0.944 | 1085.8
303.15 K, 101 kPa, m1 = 0.2378 | 1015.5
303.15 K, 101 kPa, m1 = 0.4645 | 1033.8
303.15 K, 101 kPa, m1 = 0.944 | 1071.4
303.15 K, 101 kPa, m1 = 2.231 | 1164.9
305.49 K, 3020 kPa, m1 = 0.2378 | 1016
305.49 K, 10375 kPa, m1 = 0.2378 | 1019.1
305.49 K, 27594 kPa, m1 = 0.2378 | 1026.4
308.15 K, 101 kPa, m1 = 0.2378 | 1013.7
308.15 K, 101 kPa, m1 = 0.4645 | 1032
308.15 K, 101 kPa, m1 = 0.944 | 1069.3
308.15 K, 101 kPa, m1 = 2.231 | 1162.4
308.32 K, 3256 kPa, m1 = 0.4645 | 1033.3
308.32 K, 10375 kPa, m1 = 0.4645 | 1036.5
308.32 K, 29078 kPa, m1 = 0.4645 | 1044.3
310.59 K, 2118 kPa, m1 = 2.231 | 1162.1
310.59 K, 14710 kPa, m1 = 2.231 | 1167.8
310.59 K, 19825 kPa, m1 = 2.231 | 1170.1
310.59 K, 29828 kPa, m1 = 2.231 | 1174.5
313.15 K, 101 kPa, m1 = 0.2378 | 1011.8
313.15 K, 101 kPa, m1 = 0.4645 | 1030.1
313.15 K, 101 kPa, m1 = 0.944 | 1067.2
313.15 K, 101 kPa, m1 = 2.231 | 1159.9
318.15 K, 101 kPa, m1 = 0.2378 | 1009.8
318.15 K, 101 kPa, m1 = 0.4645 | 1027.9
318.15 K, 101 kPa, m1 = 0.944 | 1065
318.15 K, 101 kPa, m1 = 2.231 | 1157.4
323.15 K, 101 kPa, m1 = 0.2378 | 1007.5
323.15 K, 101 kPa, m1 = 0.4645 | 1025.6
323.15 K, 101 kPa, m1 = 0.944 | 1062.5
323.15 K, 101 kPa, m1 = 2.231 | 1154.8
328.15 K, 101 kPa, m1 = 0.2378 | 1005.1
328.15 K, 101 kPa, m1 = 0.4645 | 1023.2
328.15 K, 101 kPa, m1 = 0.944 | 1060
328.15 K, 101 kPa, m1 = 2.231 | 1152.1
333.15 K, 101 kPa, m1 = 0.2378 | 1002.6
333.15 K, 101 kPa, m1 = 0.4645 | 1020.5
333.15 K, 101 kPa, m1 = 0.944 | 1057.4
333.15 K, 101 kPa, m1 = 2.231 | 1149.3
338.15 K, 101 kPa, m1 = 0.2378 | 999.9
338.15 K, 101 kPa, m1 = 0.4645 | 1017.8
338.15 K, 101 kPa, m1 = 0.944 | 1054.6
338.15 K, 101 kPa, m1 = 2.231 | 1146.4
343.15 K, 101 kPa, m1 = 0.2378 | 997.1
343.15 K, 101 kPa, m1 = 0.4645 | 1014.9
343.15 K, 101 kPa, m1 = 0.944 | 1051.7
343.33 K, 3923 kPa, m1 = 0.4645 | 1016.4
343.33 K, 9552 kPa, m1 = 0.4645 | 1018.7
343.33 K, 16550 kPa, m1 = 0.4645 | 1021.6
343.33 K, 28570 kPa, m1 = 0.4645 | 1026.7
348.15 K, 101 kPa, m1 = 0.2378 | 994.2
348.15 K, 101 kPa, m1 = 0.4645 | 1012
348.15 K, 101 kPa, m1 = 0.944 | 1048.7
349.79 K, 3334 kPa, m1 = 0.2378 | 994.6
349.79 K, 11278 kPa, m1 = 0.2378 | 997.9
349.79 K, 23461 kPa, m1 = 0.2378 | 1003.1
349.79 K, 29380 kPa, m1 = 0.2378 | 1005.5
358.08 K, 3668 kPa, m1 = 0.944 | 1043.1
358.08 K, 10120 kPa, m1 = 0.944 | 1046.1
358.08 K, 29145 kPa, m1 = 0.944 | 1054.5
359.48 K, 3824 kPa, m1 = 2.231 | 1132.6
359.48 K, 10866 kPa, m1 = 2.231 | 1135.7
359.48 K, 18995 kPa, m1 = 2.231 | 1139.3
359.48 K, 25870 kPa, m1 = 2.231 | 1142.3
380.97 K, 3746 kPa, m1 = 0.4645 | 990.6
380.97 K, 9316 kPa, m1 = 0.4645 | 993.2
380.97 K, 21042 kPa, m1 = 0.4645 | 998.6
380.97 K, 29750 kPa, m1 = 0.4645 | 1002.5
393.11 K, 3256 kPa, m1 = 0.2378 | 963.5
393.11 K, 10866 kPa, m1 = 0.2378 | 967.2
393.11 K, 21065 kPa, m1 = 0.2378 | 972
393.11 K, 26860 kPa, m1 = 0.2378 | 974.7
400.81 K, 3099 kPa, m1 = 0.944 | 1010.2
400.81 K, 9061 kPa, m1 = 0.944 | 1013
400.81 K, 18381 kPa, m1 = 0.944 | 1017.7
400.81 K, 25438 kPa, m1 = 0.944 | 1020.8
432.97 K, 4236 kPa, m1 = 2.231 | 1073.5
432.97 K, 11356 kPa, m1 = 2.231 | 1077.7
432.97 K, 16570 kPa, m1 = 2.231 | 1080.7
432.97 K, 22357 kPa, m1 = 2.231 | 1084
434.09 K, 4805 kPa, m1 = 0.2378 | 928.1
434.09 K, 9218 kPa, m1 = 0.2378 | 930.6
434.09 K, 16941 kPa, m1 = 0.2378 | 935
434.09 K, 28064 kPa, m1 = 0.2378 | 941.1
453.99 K, 3825 kPa, m1 = 0.4645 | 925.6
453.99 K, 9140 kPa, m1 = 0.4645 | 928.9
453.99 K, 16241 kPa, m1 = 0.4645 | 933.5
453.99 K, 22957 kPa, m1 = 0.4645 | 937.5
456.48 K, 4158 kPa, m1 = 0.944 | 959.4
456.48 K, 10120 kPa, m1 = 0.944 | 963.3
456.48 K, 17148 kPa, m1 = 0.944 | 967.9
456.48 K, 24027 kPa, m1 = 0.944 | 972.2
475.7 K, 4903 kPa, m1 = 0.2378 | 884.5
475.7 K, 10611 kPa, m1 = 0.2378 | 888.7
475.7 K, 22060 kPa, m1 = 0.2378 | 896.6
475.7 K, 29860 kPa, m1 = 0.2378 | 902
482.36 K, 4413 kPa, m1 = 0.4645 | 893.9
482.36 K, 8571 kPa, m1 = 0.4645 | 897
482.36 K, 15175 kPa, m1 = 0.4645 | 902
482.36 K, 20588 kPa, m1 = 0.4645 | 905.8
483.32 K, 5217 kPa, m1 = 2.231 | 1024.2
483.32 K, 12082 kPa, m1 = 2.231 | 1029.2
483.32 K, 22088 kPa, m1 = 2.231 | 1036.8
483.32 K, 26194 kPa, m1 = 2.231 | 1039.4
493.15 K, 4413 kPa, m1 = 0.944 | 918.4
493.15 K, 11591 kPa, m1 = 0.944 | 923.9
493.15 K, 21454 kPa, m1 = 0.944 | 931.3
493.15 K, 25284 kPa, m1 = 0.944 | 934.3
505.79 K, 5786 kPa, m1 = 2.231 | 999.3
505.79 K, 11846 kPa, m1 = 2.231 | 1004
505.79 K, 16954 kPa, m1 = 2.231 | 1007.9
505.79 K, 23854 kPa, m1 = 2.231 | 1013.5
511.39 K, 6119 kPa, m1 = 0.4645 | 858.4
511.39 K, 10297 kPa, m1 = 0.4645 | 862.3
511.39 K, 16047 kPa, m1 = 0.4645 | 867.8
511.39 K, 24184 kPa, m1 = 0.4645 | 875.1
520.89 K, 7355 kPa, m1 = 0.944 | 884.8
520.89 K, 12082 kPa, m1 = 0.944 | 889.3
520.89 K, 20122 kPa, m1 = 0.944 | 896.9
534.22 K, 8081 kPa, m1 = 0.2378 | 809.6
534.22 K, 11356 kPa, m1 = 0.2378 | 813.5
534.22 K, 23496 kPa, m1 = 0.2378 | 827
540.44 K, 8571 kPa, m1 = 0.4645 | 819.8
540.44 K, 11591 kPa, m1 = 0.4645 | 823.1
540.44 K, 22189 kPa, m1 = 0.4645 | 836.2
551.72 K, 9140 kPa, m1 = 0.944 | 842.2
551.72 K, 14533 kPa, m1 = 0.944 | 848.7
551.72 K, 21645 kPa, m1 = 0.944 | 857.5
555.7 K, 9708 kPa, m1 = 2.231 | 941.3
555.7 K, 13965 kPa, m1 = 2.231 | 946
555.7 K, 19995 kPa, m1 = 2.231 | 952.8
555.7 K, 23967 kPa, m1 = 2.231 | 957
579.16 K, 11670 kPa, m1 = 0.944 | 797.3
579.16 K, 14220 kPa, m1 = 0.944 | 803
579.16 K, 20665 kPa, m1 = 0.944 | 816.1
579.16 K, 23665 kPa, m1 = 0.944 | 822.3
580.61 K, 11023 kPa, m1 = 0.4645 | 754.1
580.61 K, 12494 kPa, m1 = 0.4645 | 757.8
580.61 K, 19782 kPa, m1 = 0.4645 | 773.2
592.65 K, 11234 kPa, m1 = 0.2378 | 698.5
592.65 K, 13731 kPa, m1 = 0.2378 | 706.6
592.65 K, 20610 kPa, m1 = 0.2378 | 725.2
608.09 K, 16573 kPa, m1 = 0.4645 | 703.4
608.09 K, 17652 kPa, m1 = 0.4645 | 707.1
608.09 K, 23146 kPa, m1 = 0.4645 | 725.8
616.41 K, 14847 kPa, m1 = 0.944 | 714.7
616.41 K, 15769 kPa, m1 = 0.944 | 727.1
616.41 K, 19875 kPa, m1 = 0.944 | 753.5
628.63 K, 17475 kPa, m1 = 2.231 | 841.1
628.63 K, 18221 kPa, m1 = 2.231 | 844.9
